Assay results as given in patent publication US6355619B1, “Peptide tumor cell growth inhibitors” (Board of Regents, The University of Texas System, priority 1996, dated 2002).

Tests used:
[1] = test system: adenocarcinoma from colon Caco-2; experiment: Tumor cell growth, Caco-2; type: cell-based
RPMI-7951 melanoma cells = experiment: Cell growth assay, RPMI-7951; type: cell-based
Protocol: (§1) FIG. 15B. The effect of Antileukinate on the growth of melanoma cells. Melanoma cell lines and a control liver cancer cell line (2×10^4 cells/well) in 500 μ were cultured in a 24 well tissue culture plate in the presence of various concentrations of Antileukinate for 3 d. The culture media were changed to fresh media containing the same concentration of Antileukinate every 24 hr during the incubation period. After incubation, the cells were collected and the cell number was counted using a hemocytometer. RPMI-7951 cell line. Analysis of variance was used for multiple comparison.
(§2) The cell lines (2×10^4 cells/well) in 500 μl cell culture medium were grown in 24 well tissue culture plates. After the cells adhered to the plate, the supernatants were aspirated and 500 μl of media containing various concentrations of Antileukinate were added to the wells. The cells were cultured for period indicated in the text. The culture media were changed to fresh media every 24 hr. After incubation, the cells were detached with trypsin-EDTA solution (Life Technologies Inc., Gaithersburg, Md., containing 0.05% of trypsin and 0.53 mM of EDTA in Hanks Balanced Salt Solution without Ca^2+ and Mg^2+) and the cell number was counted using a hemocytometer.

[2] = target: T1, MIP2β binding to human neutrophils (Homo sapiens, UniProt P25025); experiment: Binding of radioiodinated MIP2β to human neutrophils; details: 1 nM MIP2β
T1 construct: endogenous in cells; host or cells: human neutrophils
Protocol: FIG. 10. Ac-RRWWCX (SEQ ID NO:23) Inhibits Binding of GRO and MIP2β to human neutrophils. Radioiodinated MIP2β and GRO/MGSA were mixed with various concentration of Ac-RRWWCR-NH2 and incubated at room temperature for 15 min. Neutrophil suspension (1×10^6 cells in 160 μl PBS containing 0.1% BSA) was added to 40 μl of the mixture and incubated for 90 min on ice. The radioactivity bound to the cells was separated from free radioactivity by centrifugation through an oil layer. The % binding inhibition was calculated as follows: [formula]
MIP2β and GRO/MGSA were radioiodinated using Bolten Hunter reagent. The radioiodinated components were mixed with various concentration of the Ac-RRWWCX-NH2 (SEQ ID NO:23) peptide and incubated at room temperature for 15 min. Neutrophil suspension (1×10^6 cells in 160 μl PBS containing 0.1% BSA) was added to 40 μl of the mixture and incubated for 90 min on ice. The radioactivity bound to the cells was separated from free radioactivity by centrifugation through an oil layer. The bound radioactivity is an indication of bound CXC intercrine peptide. The % binding inhibition in the presence of Ac-RRWWCX-NH2 (SEQ ID NO:23) was calculated as follows: [formula]
where B is bound radioactivity in the presence of the peptide, T is bound radioactivity in the absence of the peptide, and NSP is bound radioactivity in the presence of excess nonlabeled ligand.

[3] = test system: adenocarcinoma from stomach AGS; experiment: Tumor cell growth, AGS; type: cell-based
Hs 294T melanoma cells = experiment: Cell growth assay, Hs 294T; type: cell-based, human
Protocol: as §1, with “15A.” for “15B.”, “μl” for “μ”, “Hs 294 T” for “RPMI-7951”
as §2

[4] = test system: MGSA/GROα receptors on Hs 294T melanoma cells; experiment: Binding of 125I-MGSA/GROα to Hs 294T melanoma cells; parameters: species or system human; details: 1 nM 125I-labeled MGSA/GROα, read-out: EC50, inhibition of MGSA/GROα binding
Protocol: FIG. 11A. The binding of ^125I-labeled MGSA/GROα to melanoma cell lines, Hs 294T and RPMI-7951. The melanoma cells, 1×10^5, were incubated with 1 nM ^125I-MGSA/GROα in the presence of various concentrations of unlabeled MGSA/GROα. Binding inhibition curve with Hs 294T (closed circles) and RPMI-7951 (open circles). The lines shown in the graph are the best fit curves calculated using the London II computer program.
FIG. 13. The effect of Antileukinate on the binding of radiolabeled MGSA/GROα to the melanoma cell lines. The melanoma cells, Hs 294T (closed circles) and RPMI-7951 (open circles), were incubated with 1 nM ^125I-MGSA/GROα in the presence of different concentrations of Antileukinate. The lines shown in the graph are the best fit curves calculated using the London II computer program.
Recombinant human MGSA/GROα and IL-8 were purchased form Pepro Tech Inc. (Rocky Hill, N.J.) and radioactively labeled using ^125I-labeled Bolton-Hunter reagent (DuPont-NEN, Wilmington, Del.) (Bolton and Hunter, 1973). The labeled proteins were isolated using Sephadex G-25 column (Column PD-10, Pharmacia) pre-equilibrated with PBS containing 0.1% gelatin and stored at −70° C. after the addition of 1% bovine serum albumin.
Binding studies with melanoma cell lines were performed by the method of Horuk and colleagues (Horuk et al., 1993). Briefly, the cells (1×10^5 cells/well) in 24-well plates were washed two times with Hank's Balanced Salt Solution and incubated with ^125I-labeled MGSA/GROα or IL-8 in the buffer containing 1% bovine serum albumin at 4° C. for 3 hr. The incubation was terminated by vacuum aspiration of the supernatant. The cells were washed three times in binding buffer, solubilized by the addition of 200 μl of 1% SDS, and transferred to vials for counting. The non-specific binding was estimated by measuring the binding in the presence of 100-fold excess of non-labeled ligand. The binding parameters were calculated using the Lundon II computer program (Lundon Software Inc., Chagrin Falls, Ohio).

T1 sequence (P25025 whole entry): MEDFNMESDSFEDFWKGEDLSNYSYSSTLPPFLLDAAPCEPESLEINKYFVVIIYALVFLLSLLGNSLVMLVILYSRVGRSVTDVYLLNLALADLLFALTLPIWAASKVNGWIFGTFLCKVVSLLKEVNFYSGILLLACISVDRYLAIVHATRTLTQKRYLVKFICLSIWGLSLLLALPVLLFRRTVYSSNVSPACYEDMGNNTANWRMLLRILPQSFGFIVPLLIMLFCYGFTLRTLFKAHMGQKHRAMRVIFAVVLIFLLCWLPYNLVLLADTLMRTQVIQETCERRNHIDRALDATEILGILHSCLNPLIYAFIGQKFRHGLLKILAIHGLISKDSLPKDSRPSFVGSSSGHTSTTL

RRWWCR [Ac-RRWWCR-NH2]
effect on cell growth [1]: inhibits growth
cell growth at 100 μM peptide (RPMI-7951 melanoma cells; RPMI-7951, 100 μM): suppressed the cell growth almost completely
EC50 (RPMI-7951 melanoma cells; RPMI-7951, 72 hr, medium changed every 24 hr, read-out: ED50, cell growth inhibition): 31 µM
effect on binding of MIP2β to neutrophils ([2]; listed as Ac-RRWWCX-NH2): effectively suppress the binding
effect on binding of MIP2β to neutrophils ([2]; listed as Antileukinate): suppressed the binding
effect on cell growth [3]: inhibits growth
cell growth at 100 μM peptide (Hs 294T melanoma cells; 100 μM): suppressed the cell growth almost completely
peptide concentration significantly inhibiting growth (Hs 294T melanoma cells; 72 hr): 10 µM
EC50 (Hs 294T melanoma cells; 72 hr, medium changed every 24 hr, read-out: ED50, cell growth inhibition): 18 µM
EC50 [4]: ~1 µM
